Laboratory results: US20180304019A1, “ADMINISTRATION APPARATUS” (DAICEL CORPORATION, priority 2015, published 2018)
Read-outs that look alike come from different tables or passages of the source.

Test system: intradermal layer, skin tissue of the rabbit in vivo
Details: dose 100 μl
Procedure: Moreover, an object of the following experimental conditions is to confirm, when an inflammatory substance is administered to the intradermal layer which is skin tissue of the rabbit in vivo, a presence or absence of an inflammatory response (formation of erythema and eschar, and formation of edema) for each elapsed time (after 24 hours, 48 hours, and 72 hours). In addition, the injection of an injection solution with the needled injector was performed at a constant pressurization rate.
16-week-old male Std: JW/CSK rabbit, already shaved and smooth skin-verified, was used.
An aqueous solution of the following inflammatory substance was used as the dosing liquid and the injection solution.
Inflammatory substance: acetic acid, diluted to a predetermined concentration with distilled water, dose 100 μl
Definitions of numerical values representing the experimental results in the tables with respect to each of erythema and eschar formation and edema formation are as follows.
(Erythema and Eschar Formation)
1 Very slight erythema (barely perceptible erythema)
2 Slight erythema (clearly perceptible erythema)
3 Moderate to severe erythema
4 Severe erythema to eschar formations
1 Very slight edema (barely perceptible edema)
2 Slight edema (edema with edges perceptible due to definite raising)
3 Moderate edema (raised approximately 1 mm)
4 Severe edema (raised 1 mm or more and extending beyond the area of exposure)

[1] = acetic acid 0.25%, Comparative example (needled injector), 24 h
[2] = acetic acid 0.25%, Comparative example (needled injector), 48 h
[3] = acetic acid 0.25%, Comparative example (needled injector), 72 h
[4] = acetic acid 0.25%, Injector 1, 24 h
[5] = acetic acid 0.25%, Injector 1, 48 h
[6] = acetic acid 0.25%, Injector 1, 72 h
[7] = acetic acid 0.5%, Comparative example (needled injector), 24 h
[8] = acetic acid 0.5%, Comparative example (needled injector), 48 h
[9] = acetic acid 0.5%, Comparative example (needled injector), 72 h
[10] = acetic acid 0.5%, Injector 1, 24 h
[11] = acetic acid 0.5%, Injector 1, 48 h
[12] = acetic acid 0.5%, Injector 1, 72 h
[13] = acetic acid 1.0%, Comparative example (needled injector), 24 h
[14] = acetic acid 1.0%, Comparative example (needled injector), 48 h
[15] = acetic acid 1.0%, Comparative example (needled injector), 72 h
[16] = acetic acid 1.0%, Injector 1, 24 h
[17] = acetic acid 1.0%, Injector 1, 48 h
[18] = acetic acid 1.0%, Injector 1, 72 h
[19] = acetic acid 1.5%, Comparative example (needled injector), 24 h
[20] = acetic acid 1.5%, Comparative example (needled injector), 48 h
[21] = acetic acid 1.5%, Comparative example (needled injector), 72 h
[22] = acetic acid 1.5%, Injector 1, 24 h
[23] = acetic acid 1.5%, Injector 1, 48 h
[24] = acetic acid 1.5%, Injector 1, 72 h
[25] = acetic acid 2.0%, Comparative example (needled injector), 24 h
[26] = acetic acid 2.0%, Comparative example (needled injector), 48 h
[27] = acetic acid 2.0%, Comparative example (needled injector), 72 h
[28] = acetic acid 2.0%, Injector 1, 24 h
[29] = acetic acid 2.0%, Injector 1, 48 h
[30] = acetic acid 2.0%, Injector 1, 72 h

Edema 24 h [1]: 0 | Erythema etc. 24 h [1]: 1 | Edema 48 h [2]: 0 | Erythema etc. 48 h [2]: 1 | Edema 72 h [3]: 0 | Erythema etc. 72 h [3]: 1 | Edema 24 h [4]: 0 | Erythema etc. 24 h [4]: 1 | Edema 48 h [5]: 0 | Erythema etc. 48 h [5]: 1 | Edema 72 h [6]: 0 | Erythema etc. 72 h [6]: 1 | Edema 24 h [7]: 0 | Erythema etc. 24 h [7]: 1 | Edema 48 h [8]: 0 | Erythema etc. 48 h [8]: 1 | Edema 72 h [9]: 0 | Erythema etc. 72 h [9]: 1 | Edema 24 h [10]: 0 | Erythema etc. 24 h [10]: 1 | Edema 48 h [11]: 0 | Erythema etc. 48 h [11]: 1 | Edema 72 h [12]: 0 | Erythema etc. 72 h [12]: 1 | Edema 24 h [13]: 1 | Erythema etc. 24 h [13]: 1 | Edema 48 h [14]: 1 | Erythema etc. 48 h [14]: 1 | Edema 72 h [15]: 1 | Erythema etc. 72 h [15]: 1 | Edema 24 h [16]: 0 | Erythema etc. 24 h [16]: 1 | Edema 48 h [17]: 0 | Erythema etc. 48 h [17]: 1 | Edema 72 h [18]: 0 | Erythema etc. 72 h [18]: 1 | Edema 24 h [19]: 2 | Erythema etc. 24 h [19]: 1 | Edema 48 h [20]: 2 | Erythema etc. 48 h [20]: 1 | Edema 72 h [21]: 2 | Erythema etc. 72 h [21]: 1 | Edema 24 h [22]: 0 | Erythema etc. 24 h [22]: 1 | Edema 48 h [23]: 0 | Erythema etc. 48 h [23]: 1 | Edema 72 h [24]: 0 | Erythema etc. 72 h [24]: 1 | Edema 24 h [25]: 3 | Erythema etc. 24 h [25]: 1 | Edema 48 h [26]: 3 | Erythema etc. 48 h [26]: 1 | Edema 72 h [27]: 2 | Erythema etc. 72 h [27]: 1 | Edema 24 h [28]: 1 | Erythema etc. 24 h [28]: 1 | Edema 48 h [29]: 1 | Erythema etc. 48 h [29]: 1 | Edema 72 h [30]: 1 | Erythema etc. 72 h [30]: 1
SMILES: CC(=O)O [Acetic acid, acetic acid]
